According to the CheMixHub viscosity set:
± gives the uncertainty stated by the source.

Experiment: xn = mol fraction of the nth substance listed

CCC[n+]1ccccc1.F[B-](F)(F)F + CO
101 kPa
Details | viscosity [mPa·s]
303.15 K, x1 = 0.8956 | 59.95 ± 1.1
323.15 K, x1 = 0.3918 | 4.475 ± 0.1

O=C(O)c1cc(O)c(O)c(O)c1 + CO
viscosity [mPa·s], 101 kPa
Details | 293.15 K | 298.15 K | 303.15 K | 308.15 K | 313.15 K
x1 = 0.0019 | 0.634 ± 0.017 | 0.595 ± 0.016 | 0.551 ± 0.015 | 0.517 ± 0.014 | 0.491 ± 0.013
x1 = 0.0038 | 0.664 ± 0.018 | 0.62 ± 0.016 | 0.576 ± 0.015 | 0.542 ± 0.014 | 0.505 ± 0.013
x1 = 0.0058 | 0.699 ± 0.019 | 0.66 ± 0.018 | 0.604 ± 0.016 | 0.562 ± 0.015 | 0.528 ± 0.014
x1 = 0.0078 | 0.734 ± 0.019 | 0.684 ± 0.018 | 0.635 ± 0.017 | 0.591 ± 0.016 | 0.55 ± 0.015

Oc1ccccc1Cl + CO
Details | viscosity [mPa·s]
303.15 K, 101 kPa, x1 = 0.2447 | 1.911 ± 0.86

CC(C)c1ccccc1 + COC(=O)c1ccccc1
viscosity [mPa·s], 101 kPa
Details | x2 = 0.1127 | x2 = 0.2209 | x2 = 0.3251 | x2 = 0.429 | x2 = 0.5302 | x2 = 0.6213 | x2 = 0.7199 | x2 = 0.8144 | x2 = 0.9082
303.15 K | 0.729 ± 0.011 | 0.795 ± 0.011 | 0.865 ± 0.012 | 0.94 ± 0.01 | 1.029 ± 0.012 | 1.128 ± 0.013 | 1.244 ± 0.013 | 1.364 ± 0.014 | 1.502 ± 0.015
313.15 K | 0.649 ± 0.011 | 0.694 ± 0.011 | 0.75 ± 0.01 | 0.819 ± 0.012 | 0.883 ± 0.012 | 0.961 ± 0.012 | 1.044 ± 0.013 | 1.132 ± 0.013 | 1.235 ± 0.014

CCCCOC(C)=O + COCCO
viscosity [mPa·s], 101 kPa
Details | x2 = 0.0967 | x2 = 0.1995 | x2 = 0.2988 | x2 = 0.3986 | x2 = 0.4983 | x2 = 0.6028 | x2 = 0.697 | x2 = 0.7987 | x2 = 0.9012
298.15 K | 0.703 ± 0.059 | 0.736 ± 0.062 | 0.787 ± 0.066 | 0.841 ± 0.07 | 0.922 ± 0.077 | 1.01 ± 0.084 | 1.13 ± 0.094 | 1.285 ± 0.11 | 1.48 ± 0.12
303.15 K | 0.656 ± 0.055 | 0.686 ± 0.057 | 0.731 ± 0.061 | 0.78 ± 0.065 | 0.849 ± 0.071 | 0.928 ± 0.077 | 1.034 ± 0.086 | 1.17 ± 0.097 | 1.34 ± 0.11
308.15 K | 0.615 ± 0.052 | 0.641 ± 0.054 | 0.68 ± 0.057 | 0.723 ± 0.06 | 0.785 ± 0.066 | 0.855 ± 0.071 | 0.948 ± 0.079 | 1.066 ± 0.089 | 1.217 ± 0.1

CCCN + COCCO
viscosity [mPa·s]
Details | 293.15 K | 298.15 K
101 kPa, x2 = 0.0294 | – | 0.387 ± 0.007
101 kPa, x2 = 0.0662 | – | 0.415 ± 0.007
101 kPa, x2 = 0.0845 | – | 0.431 ± 0.007
101 kPa, x2 = 0.1053 | – | 0.448 ± 0.007
101 kPa, x2 = 0.1391 | – | 0.482 ± 0.007
101 kPa, x2 = 0.1936 | – | 0.54 ± 0.007
101 kPa, x2 = 0.2423 | – | 0.6 ± 0.008
101 kPa, x2 = 0.2765 | – | 0.644 ± 0.008
101 kPa, x2 = 0.321 | – | 0.708 ± 0.008
101 kPa, x2 = 0.3635 | – | 0.775 ± 0.008
101 kPa, x2 = 0.3989 | – | 0.835 ± 0.008
101 kPa, x2 = 0.4418 | – | 0.909 ± 0.009
101 kPa, x2 = 0.4845 | – | 0.974 ± 0.009
101 kPa, x2 = 0.5165 | – | 1.031 ± 0.009
101 kPa, x2 = 0.5599 | – | 1.106 ± 0.009
101 kPa, x2 = 0.5942 | – | 1.166 ± 0.01
101 kPa, x2 = 0.6575 | – | 1.265 ± 0.01
101 kPa, x2 = 0.6877 | – | 1.309 ± 0.01
101 kPa, x2 = 0.7452 | – | 1.384 ± 0.011
101 kPa, x2 = 0.8042 | – | 1.442 ± 0.011
101 kPa, x2 = 0.8424 | – | 1.47 ± 0.011
101 kPa, x2 = 0.8852 | – | 1.495 ± 0.011
101 kPa, x2 = 0.9064 | – | 1.505 ± 0.011
101 kPa, x2 = 0.9584 | – | 1.522 ± 0.011
101 kPa, x2 = 0.9794 | – | 1.527 ± 0.011
101.3 kPa, x2 = 0.0502 | 0.396 ± 0.011 | 0.38 ± 0.011
101.3 kPa, x2 = 0.1009 | 0.435 ± 0.011 | 0.415 ± 0.011
101.3 kPa, x2 = 0.1501 | 0.479 ± 0.011 | 0.453 ± 0.011
101.3 kPa, x2 = 0.2002 | 0.533 ± 0.011 | 0.501 ± 0.011
101.3 kPa, x2 = 0.2504 | 0.599 ± 0.011 | 0.559 ± 0.011
101.3 kPa, x2 = 0.3 | 0.674 ± 0.011 | 0.627 ± 0.011
101.3 kPa, x2 = 0.3498 | 0.759 ± 0.012 | 0.703 ± 0.011
101.3 kPa, x2 = 0.3997 | 0.852 ± 0.012 | 0.785 ± 0.012
101.3 kPa, x2 = 0.4499 | 0.95 ± 0.012 | 0.87 ± 0.012
101.3 kPa, x2 = 0.4998 | 1.05 ± 0.013 | 0.955 ± 0.012
101.3 kPa, x2 = 0.5504 | 1.149 ± 0.013 | 1.039 ± 0.013
101.3 kPa, x2 = 0.6 | 1.241 ± 0.014 | 1.116 ± 0.013
101.3 kPa, x2 = 0.6498 | 1.325 ± 0.014 | 1.186 ± 0.013
101.3 kPa, x2 = 0.6999 | 1.4 ± 0.014 | 1.249 ± 0.014
101.3 kPa, x2 = 0.7495 | 1.462 ± 0.015 | 1.304 ± 0.014
101.3 kPa, x2 = 0.8 | 1.515 ± 0.015 | 1.354 ± 0.014
101.3 kPa, x2 = 0.8511 | 1.561 ± 0.015 | 1.4 ± 0.014
101.3 kPa, x2 = 0.8999 | 1.601 ± 0.015 | 1.443 ± 0.015
101.3 kPa, x2 = 0.9499 | 1.647 ± 0.016 | 1.49 ± 0.015

Oc1ccccc1Cl + COCCO
viscosity [mPa·s], 101 kPa
Details | x1 = 0.0797 | x1 = 0.163 | x1 = 0.2503 | x1 = 0.3418 | x1 = 0.4379 | x1 = 0.5388 | x1 = 0.6451 | x1 = 0.757 | x1 = 0.8752
303.15 K | 1.925 ± 0.045 | 2.342 ± 0.053 | 2.78 ± 0.063 | 3.204 ± 0.072 | 3.56 ± 0.079 | 3.811 ± 0.084 | 3.884 ± 0.086 | 3.735 ± 0.083 | 3.376 ± 0.075
308.15 K | 1.81 ± 0.042 | 2.126 ± 0.049 | 2.456 ± 0.056 | 2.776 ± 0.063 | 3.04 ± 0.068 | 3.212 ± 0.072 | 3.268 ± 0.073 | 3.166 ± 0.071 | 2.898 ± 0.065
313.15 K | 1.479 ± 0.035 | 1.762 ± 0.041 | 2.055 ± 0.047 | 2.335 ± 0.053 | 2.586 ± 0.059 | 2.765 ± 0.062 | 2.842 ± 0.064 | 2.785 ± 0.063 | 2.593 ± 0.059
318.15 K | 1.34 ± 0.032 | 1.572 ± 0.037 | 1.805 ± 0.042 | 2.03 ± 0.047 | 2.227 ± 0.051 | 2.37 ± 0.054 | 2.445 ± 0.056 | 2.419 ± 0.055 | 2.282 ± 0.052
